Results: PubChem BioAssay AID248 (DTP/NCI, 2004)
Inconclusive results and toxic doses are left out.

Tested on: L1210 leukemia ip in BDF1 mice, survival T/C
Assay: NCI In Vivo Anticancer Drug Screen. Data for tumor model L1210 Leukemia (intraperitoneal) in B6D2F1 (BDF1) mice
Conditions: higher = longer survival
Procedure, shortened: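 Ratio derived from survival: compound-dosed mice over vehicle-dosed mice, all bearing a transplantable tumor.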

[1] = endpoint: mean survival time, dose: 100.0 mg/kg/injection, schedule: Q01DX009 (ip), vehicle: Klucel (hydroxypropylcellulose) (HPC)
[2] = endpoint: mean survival time, dose: 100.0 mg/kg/injection, schedule: Q04DX003 (ip), vehicle: Klucel (hydroxypropylcellulose) (HPC)
[3] = endpoint: mean survival time, dose: 200.0 mg/kg/injection, schedule: Q04DX003 (ip), vehicle: Klucel (hydroxypropylcellulose) (HPC)
[4] = endpoint: mean survival time, dose: 200.0 mg/kg/injection, schedule: Q01DX009 (ip), vehicle: Klucel (hydroxypropylcellulose) (HPC)
[5] = endpoint: mean survival time, dose: 400.0 mg/kg/injection, schedule: Q04DX003 (ip), vehicle: Klucel (hydroxypropylcellulose) (HPC)
[6] = endpoint: mean survival time, dose: 100.0 mg/kg/injection, schedule: Q04DX003 (ip), vehicle: saline with Tween-80
[7] = endpoint: mean survival time, dose: 200.0 mg/kg/injection, schedule: Q04DX003 (ip), vehicle: saline with Tween-80
[8] = endpoint: mean survival time, dose: 400.0 mg/kg/injection, schedule: Q04DX003 (ip), vehicle: saline with Tween-80
[9] = endpoint: mean survival time, dose: 100.0 mg/kg/injection, schedule: Q01DX009 (ip), vehicle: saline with Tween-80
[10] = endpoint: mean survival time, dose: 200.0 mg/kg/injection, schedule: Q01DX009 (ip), vehicle: saline with Tween-80
[11] = endpoint: mean survival time, dose: 100.0 mg/kg/injection, schedule: Q01DX001 (ip), vehicle: other
[12] = endpoint: mean survival time, dose: 200.0 mg/kg/injection, schedule: Q01DX001 (ip), vehicle: other
[13] = endpoint: mean survival time, dose: 400.0 mg/kg/injection, schedule: Q01DX001 (ip), vehicle: other
[14] = endpoint: mean survival time, dose: 100.0 mg/kg/injection, schedule: Q01DX001 (ip), vehicle: saline
[15] = endpoint: mean survival time, dose: 100.0 mg/kg/injection, schedule: Q01DX001 (ip), vehicle: saline with Tween-80

CCCCC1=C(OCC)C(CCCC)C1=O (centres undefined)
T/C (endpoint: mean survival time, dose: 10.0 mg/kg/injection, schedule: Q01DX009 (ip), vehicle: Klucel (hydroxypropylcellulose) (HPC)): 94 % of control | T/C (endpoint: mean survival time, dose: 20.0 mg/kg/injection, schedule: Q01DX009 (ip), vehicle: Klucel (hydroxypropylcellulose) (HPC)): 92 % of control | T/C (endpoint: mean survival time, dose: 40.0 mg/kg/injection, schedule: Q01DX009 (ip), vehicle: Klucel (hydroxypropylcellulose) (HPC)): 94 % of control | T/C [1]: 101 % of control | T/C [2]: 96 % of control | T/C [3]: 100 % of control

CCc1ccccc1NC(=O)Nc1ccccc1C
T/C [1]: 87 % of control | T/C [2]: 88 % of control | T/C [4]: 93 % of control | T/C [3]: 89 % of control | T/C (endpoint: mean survival time, dose: 400.0 mg/kg/injection, schedule: Q01DX009 (ip), vehicle: Klucel (hydroxypropylcellulose) (HPC)): 87 % of control | T/C [5]: 93 % of control

CC(Oc1ccc(Br)cc1Br)C(=O)O (centres undefined)
T/C [6]: 93 % of control | T/C [7]: 93 % of control | T/C [8]: 95 % of control

CCOC(=O)C1(C(=O)OCC)CCC(O)N1C(=O)c1cc(OC)c(OC)cc1[N+](=O)[O-] (centres undefined)
T/C [2]: 97 % of control | T/C [3]: 99 % of control | T/C [5]: 97 % of control

NC(=O)NC(=O)COc1ccc(Cl)cc1Cl
T/C (endpoint: mean survival time, dose: 100.0 mg/kg/injection, schedule: Q04DX002 (ip), vehicle: saline + alcohol): 96 % of control | T/C (endpoint: mean survival time, dose: 200.0 mg/kg/injection, schedule: Q04DX002 (ip), vehicle: saline + alcohol): 103 % of control

COC(=O)C1CNN=C1C(=O)N1Cc2cc3ccccc3nc2C1 (centres undefined)
T/C (endpoint: mean survival time, dose: 10.0 mg/kg/injection, schedule: Q04DX003 (ip), vehicle: saline): 94 % of control | T/C (endpoint: mean survival time, dose: 20.0 mg/kg/injection, schedule: Q04DX003 (ip), vehicle: saline): 97 % of control | T/C (endpoint: mean survival time, dose: 40.0 mg/kg/injection, schedule: Q04DX003 (ip), vehicle: saline): 91 % of control | T/C (endpoint: mean survival time, dose: 80.0 mg/kg/injection, schedule: Q04DX003 (ip), vehicle: saline): 97 % of control | T/C (endpoint: mean survival time, dose: 160.0 mg/kg/injection, schedule: Q04DX003 (ip), vehicle: saline): 99 % of control

CC(C)(Cl)CCl
T/C [9]: 106 % of control | T/C [6]: 101 % of control | T/C [10]: 89 % of control | T/C [7]: 98 % of control

CCCCN(C)N=Nc1ccc(CCC(=O)OCC)cc1
T/C (endpoint: mean survival time, dose: 72.5 mg/kg/injection, schedule: Q01DX009 (ip), vehicle: saline with Tween-80): 121 % of control | T/C (endpoint: mean survival time, dose: 177.0 mg/kg/injection, schedule: Q01DX009 (ip), vehicle: other): 117 % of control | T/C (endpoint: mean survival time, dose: 187.0 mg/kg/injection, schedule: Q01DX Z (ip), vehicle: saline): 117 % of control | T/C (endpoint: mean survival time, dose: 207.0 mg/kg/injection, schedule: Q01DX001 (ip), vehicle: saline with Tween-80): 111 % of control | T/C (endpoint: mean survival time, dose: 266.0 mg/kg/injection, schedule: Q01DX007 (ip), vehicle: saline): 160 % of control | T/C (endpoint: mean survival time, dose: 290.0 mg/kg/injection, schedule: Q01DX009 (ip), vehicle: saline with Tween-80): 171 % of control | T/C (endpoint: mean survival time, dose: 400.0 mg/kg/injection, schedule: Q01DX007 (ip), vehicle: saline): 171 % of control | T/C (endpoint: mean survival time, dose: 400.0 mg/kg/injection, schedule: Q01DX009 (ip), vehicle: other): 162 % of control | T/C (endpoint: mean survival time, dose: 414.5 mg/kg/injection, schedule: Q01DX001 (ip), vehicle: saline with Tween-80): 119 % of control | T/C (endpoint: mean survival time, dose: 600.0 mg/kg/injection, schedule: Q01DX009 (ip), vehicle: other): 179 % of control | T/C (endpoint: median survival time, dose: 200.0 mg/kg/injection, schedule: Q04DX003 (ip), vehicle: Klucel (hydroxypropylcellulose) (HPC)): 111 % of control | T/C (endpoint: median survival time, dose: 800.0 mg/kg/injection, schedule: Q01DX009 (ip), vehicle: saline): 187 % of control

CCCCOC(=O)c1cccc2c1-c1ccccc1C2=O
T/C [11]: 86 % of control | T/C [12]: 93 % of control | T/C [13]: 91 % of control

CC(C)NC(=O)Nc1cccc(Cl)c1
T/C (endpoint: mean survival time, dose: 100.0 mg/kg/injection, schedule: Q04DX003 (ip), vehicle: gum acacia): 96 % of control | T/C (endpoint: mean survival time, dose: 200.0 mg/kg/injection, schedule: Q04DX003 (ip), vehicle: gum acacia): 94 % of control | T/C (endpoint: mean survival time, dose: 400.0 mg/kg/injection, schedule: Q04DX003 (ip), vehicle: gum acacia): 100 % of control

CC(C)c1ccc2c(c1)CCC1C2CCCC1(C)NCc1ccccc1 (centres undefined)
T/C (endpoint: mean survival time, dose: 55.0 mg/kg/injection, schedule: Q01DX Z (ip), vehicle: methylcellulose (MC)): 87 % of control

OC[CH2][Hg][I]
T/C (endpoint: mean survival time, dose: 1.56 mg/kg/injection, schedule: Q01DX009 (ip), vehicle: Klucel (hydroxypropylcellulose) (HPC)): 88 % of control | T/C (endpoint: mean survival time, dose: 6.25 mg/kg/injection, schedule: Q01DX009 (ip), vehicle: Klucel (hydroxypropylcellulose) (HPC)): 93 % of control

Cc1nc2nc(Cl)c(Cl)nc2[nH]1
T/C (endpoint: mean survival time, dose: 25.0 mg/kg/injection, schedule: Q04DX003 (ip), vehicle: saline with Tween-80): 92 % of control | T/C (endpoint: mean survival time, dose: 50.0 mg/kg/injection, schedule: Q04DX003 (ip), vehicle: saline with Tween-80): 97 % of control | T/C [2]: 102 % of control | T/C [6]: 89 % of control

O=C(COc1ccc(Cl)c(Cl)c1)NCc1ccncc1
T/C (endpoint: mean survival time, dose: 100.0 mg/kg/injection, schedule: Q01DX001 (ip), vehicle: Klucel (hydroxypropylcellulose) (HPC)): 93 % of control | T/C (endpoint: mean survival time, dose: 200.0 mg/kg/injection, schedule: Q01DX001 (ip), vehicle: Klucel (hydroxypropylcellulose) (HPC)): 102 % of control | T/C (endpoint: mean survival time, dose: 400.0 mg/kg/injection, schedule: Q01DX001 (ip), vehicle: Klucel (hydroxypropylcellulose) (HPC)): 102 % of control

O=C(O)C1C2OC(C(Cl)C2Cl)C1C(=O)O (centres undefined)
T/C (endpoint: mean survival time, dose: 100.0 mg/kg/injection, schedule: Q04DX002 (ip), vehicle: Klucel (hydroxypropylcellulose) (HPC)): 98 % of control | T/C (endpoint: mean survival time, dose: 200.0 mg/kg/injection, schedule: Q04DX002 (ip), vehicle: Klucel (hydroxypropylcellulose) (HPC)): 103 % of control | T/C (endpoint: mean survival time, dose: 400.0 mg/kg/injection, schedule: Q04DX002 (ip), vehicle: Klucel (hydroxypropylcellulose) (HPC)): 95 % of control

CCC/C=C/CCN1CC1
T/C (endpoint: mean survival time, dose: 20.0 mg/kg/injection, schedule: Q01DX001 (ip), vehicle: saline): 97 % of control | T/C (endpoint: mean survival time, dose: 40.0 mg/kg/injection, schedule: Q01DX001 (ip), vehicle: saline): 97 % of control | T/C [14]: 86 % of control

CCOC(=O)CCN(CC(=O)OCC)C(C)C
T/C [9]: 100 % of control | T/C [6]: 100 % of control | T/C [10]: 106 % of control | T/C [7]: 95 % of control | T/C (endpoint: mean survival time, dose: 400.0 mg/kg/injection, schedule: Q01DX009 (ip), vehicle: saline with Tween-80): 110 % of control | T/C [8]: 103 % of control

Nc1ccc(CCC(=O)Nc2ccc(S(=O)(=O)F)cc2)c(Cl)c1
T/C [15]: 101 % of control | T/C (endpoint: mean survival time, dose: 200.0 mg/kg/injection, schedule: Q01DX001 (ip), vehicle: saline with Tween-80): 93 % of control | T/C (endpoint: mean survival time, dose: 400.0 mg/kg/injection, schedule: Q01DX001 (ip), vehicle: saline with Tween-80): 88 % of control

CCn1c(C)[n+](CC)c2ccc(C(C)=O)cc21
T/C [15]: 97 % of control

CCCCCOC(=S)S
T/C (endpoint: mean survival time, dose: 9.37 mg/kg/injection, schedule: Q01DX009 (ip), vehicle: saline): 100 % of control | T/C (endpoint: mean survival time, dose: 18.75 mg/kg/injection, schedule: Q01DX009 (ip), vehicle: saline): 110 % of control | T/C (endpoint: mean survival time, dose: 37.5 mg/kg/injection, schedule: Q01DX009 (ip), vehicle: saline): 98 % of control | T/C [14]: 109 % of control | T/C (endpoint: mean survival time, dose: 200.0 mg/kg/injection, schedule: Q01DX001 (ip), vehicle: saline): 103 % of control

CNc1nc(NC)nc(NC)n1
T/C (endpoint: mean survival time, dose: 12.5 mg/kg/injection, schedule: Q01DX009 (ip), vehicle: Klucel (hydroxypropylcellulose) (HPC)): 102 % of control | T/C (endpoint: mean survival time, dose: 25.0 mg/kg/injection, schedule: Q01DX009 (ip), vehicle: Klucel (hydroxypropylcellulose) (HPC)): 102 % of control | T/C (endpoint: mean survival time, dose: 50.0 mg/kg/injection, schedule: Q01DX009 (ip), vehicle: Klucel (hydroxypropylcellulose) (HPC)): 98 % of control | T/C [1]: 98 % of control | T/C [4]: 100 % of control

COc1ccc(OC)c([N+](=O)[O-])c1C=O
T/C [11]: 92 % of control | T/C [12]: 90 % of control | T/C [13]: 90 % of control

CCOC(=O)CC(CC(=O)OCC)NC(=O)c1ccc(N(C)Cc2ccccc2)cc1
T/C (endpoint: mean survival time, dose: 100.0 mg/kg/injection, schedule: Q01DX001 (ip), vehicle: carboxymethylcellulose (CMC)): 107 % of control | T/C (endpoint: mean survival time, dose: 200.0 mg/kg/injection, schedule: Q01DX001 (ip), vehicle: carboxymethylcellulose (CMC)): 108 % of control | T/C (endpoint: mean survival time, dose: 400.0 mg/kg/injection, schedule: Q01DX001 (ip), vehicle: carboxymethylcellulose (CMC)): 105 % of control
